In patent publication US6632799B2, “Injectable ready-to-use solutions containing an antitumor anthracycline glycoside” (Pharmacia & Upjohn Company, priority 1985, dated 2003):
Counter-ions that a name gives are not always drawn.

Tests used:
Format in all cases: physicochemical
Conditions in all cases: for Kobs × 10^3: observed
[1] = Shelf-life (t 90%) forecast of doxorubicin.HCl 2 mg/ml sterile water solution adjusted to pH 3.0
Method: The Arrhenius equation for the degradation process was calculated from the Kobs obtained from the different temperatures taken in account for the testing (table 11).
Applying the equation, the rate constants for the pseudo-first order reactions at 4° C., 8° C., 15° C. and 27° C. were calculated, together with the expected t90% at these temperatures.

[2] = Shelf-life (t 90%) forecast of doxorubicin.HCl 2 mg/ml 0.9% sodium chloride solution adjusted to pH 3.0
Method: The Arrhenius equation for the degradation process was calculated from the Kobs obtained from the different temperatures taken in account for the testing (table 13).

[3] = Shelf-life (t 90%) forecast of doxorubicin.HCl 2 mg/ml solution in 5% dextrose adjusted to pH 3.0
Method: Applying the equation, the rate constants for the pseudo-first order reactions at 4° C., 8° C., and 15° C. and 27° C. were calculated, together with the expected t90% at these temperatures.

[4] = sterile water pH 3.0, 15° C., Arrhenius
[5] = sterile water pH 3.0, 27° C., 8 days
[6] = sterile water pH 3.0, 27° C., 14 days
[7] = sterile water pH 3.0, 27° C., 28 days
[8] = sterile water pH 3.0, 27° C., 32 days
[9] = sterile water pH 3.0, 27° C., 60 days
[10] = sterile water pH 3.0, 27° C., 90 days
[11] = sterile water pH 3.0, 35° C., 4 days
[12] = sterile water pH 3.0, 35° C., 8 days
[13] = sterile water pH 3.0, 35° C., 14 days
[14] = sterile water pH 3.0, 35° C., 32 days
[15] = sterile water pH 3.0, 45° C., 4 days
[16] = sterile water pH 3.0, 45° C., 8 days
[17] = sterile water pH 3.0, 45° C., 28 days
[18] = sterile water pH 3.0, 55° C., 4 days
[19] = sterile water pH 3.0, 55° C., 32 days
[20] = 0.9% NaCl pH 3.0, 27° C., Arrhenius
[21] = 0.9% sodium chloride pH 3.0, 35° C., 0 days
[22] = 0.9% sodium chloride pH 3.0, 35° C., 8 days
[23] = 0.9% sodium chloride pH 3.0, 35° C., 14 days
[24] = 0.9% sodium chloride pH 3.0, 35° C., 21 days
[25] = 0.9% sodium chloride pH 3.0, 35° C., 28 days
[26] = 0.9% sodium chloride pH 3.0, 45° C., 0 days
[27] = 0.9% sodium chloride pH 3.0, 45° C., 4 days
[28] = 0.9% sodium chloride pH 3.0, 45° C., 8 days
[29] = 0.9% sodium chloride pH 3.0, 45° C., 21 days
[30] = 0.9% sodium chloride pH 3.0, 55° C., 0 days
[31] = 0.9% sodium chloride pH 3.0, 55° C., 11 days
[32] = 0.9% sodium chloride pH 3.0, 60° C., 0 days
[33] = 0.9% sodium chloride pH 3.0, 60° C., 1 day
[34] = 0.9% sodium chloride pH 3.0, 60° C., 3 days
[35] = 5% dextrose pH 3.0, 35° C., 4 days
[36] = 5% dextrose pH 3.0, 35° C., 8 days
[37] = 5% dextrose pH 3.0, 35° C., 14 days
[38] = 5% dextrose pH 3.0, 35° C., 17 days
[39] = 5% dextrose pH 3.0, 35° C., 21 days
[40] = 5% dextrose pH 3.0, 45° C., 4 days
[41] = 5% dextrose pH 3.0, 45° C., 8 days
[42] = 5% dextrose pH 3.0, 45° C., 14 days
[43] = 5% dextrose pH 3.0, 45° C., 21 days
[44] = 5% dextrose pH 3.0, 55° C., 17 days
[45] = 5% dextrose pH 3.0, 55° C., 21 days
[46] = 5% dextrose pH 3.0, 60° C., 2 days
[47] = 5% dextrose pH 3.0, 60° C., 4 days
[48] = 5% dextrose pH 3.0, 60° C., 6 days
[49] = 5% dextrose pH 3.0, 60° C., 8 days

K × 10^3 calculated ([1]; sterile water pH 3.0, 4° C., Arrhenius): 0.019 1/days
K × 10^3 calculated ([1]; sterile water pH 3.0, 8° C., Arrhenius): 0.038 1/days
K × 10^3 calculated [1, 4]: 0.130 1/days
t90% [1, 4]: 810 days
pH ([1]; sterile water pH 3.0, 27° C., 0 days): 3.00
Doxorubicin.HCl assay [1, 5]: 1.993 mg/mL
pH [1, 5]: 2.95
Doxorubicin.HCl assay [1, 6]: 1.988 mg/mL
pH [1, 6]: 2.94
Doxorubicin.HCl assay [1, 7]: 1.941 mg/mL
pH [1, 7]: 2.94
Doxorubicin.HCl assay [1, 8]: 1.962 mg/mL
pH [1, 8]: 2.95
Doxorubicin.HCl assay [1, 9]: 1.908 mg/mL
pH [1, 9]: 2.96
Doxorubicin.HCl assay [1, 10]: 1.850 mg/mL
pH [1, 10]: 2.93
K × 10^3 calculated ([1]; sterile water pH 3.0, 27° C., Arrhenius): 0.918 1/days
Kobs × 10^3 ([1]; sterile water pH 3.0, 27° C.): 0.850 1/days
pH ([1]; sterile water pH 3.0, 35° C., 0 days): 3.00
Doxorubicin.HCl assay [1, 11]: 1.985 mg/mL
pH [1, 11]: 2.96
Doxorubicin.HCl assay [1, 12]: 1.952 mg/mL
pH [1, 12]: 2.98
Doxorubicin.HCl assay [1, 13]: 1.889 mg/mL
pH [1, 13]: 2.93
pH ([1]; sterile water pH 3.0, 35° C., 28 days): 2.92
Doxorubicin.HCl assay [1, 14]: 1.876 mg/mL
pH [1, 14]: 2.92
Kobs × 10^3 ([1]; sterile water pH 3.0, 35° C.): 3.506 1/days
pH ([1]; sterile water pH 3.0, 45° C., 0 days): 3.00
Doxorubicin.HCl assay [1, 15]: 1.919 mg/mL
pH [1, 15]: 2.97
Doxorubicin.HCl assay [1, 16]: 1.851 mg/mL
pH [1, 16]: 2.95
pH ([1]; sterile water pH 3.0, 45° C., 14 days): 2.85
Doxorubicin.HCl assay [1, 17]: 1.393 mg/mL
pH [1, 17]: 2.90
pH ([1]; sterile water pH 3.0, 45° C., 32 days): 2.92
Kobs × 10^3 ([1]; sterile water pH 3.0, 45° C.): 12.790 1/days
pH ([1]; sterile water pH 3.0, 55° C., 0 days): 3.00
Doxorubicin.HCl assay [1, 18]: 1.760 mg/mL
pH [1, 18]: 2.94
pH ([1]; sterile water pH 3.0, 55° C., 8 days): 2.90
pH ([1]; sterile water pH 3.0, 55° C., 14 days): 2.80
Doxorubicin.HCl assay [1, 19]: 0.730 mg/mL
pH [1, 19]: 2.82
Kobs × 10^3 ([1]; sterile water pH 3.0, 55° C.): 49.340 1/days
K × 10^3 calculated ([2]; 0.9% NaCl pH 3.0, 4° C., Arrhenius): 0.017 1/days
K × 10^3 calculated ([2]; 0.9% NaCl pH 3.0, 8° C., Arrhenius): 0.037 1/days
K × 10^3 calculated ([2]; 0.9% NaCl pH 3.0, 15° C., Arrhenius): 0.137 1/days
K × 10^3 calculated [2, 20]: 1.112 1/days
t90% [2, 20]: 94 days
Kobs × 10^3 ([2]; 0.9% NaCl pH 3.0, 35° C.): 3.89 1/days
Kobs × 10^3 ([2]; 0.9% NaCl pH 3.0, 45° C.): 21.61 1/days
Kobs × 10^3 ([2]; 0.9% NaCl pH 3.0, 55° C.): 75.90 1/days
Kobs × 10^3 ([2]; 0.9% NaCl pH 3.0, 60° C.): 164.90 1/days
Doxorubicin.HCl assay [2, 21]: 2.061 mg/mL
pH [2, 21]: 3.05
Doxorubicin.HCl assay [2, 22]: 2.045 mg/mL
pH [2, 22]: 2.98
Doxorubicin.HCl assay [2, 23]: 1.946 mg/mL
pH [2, 23]: 2.92
Doxorubicin.HCl assay [2, 24]: 1.932 mg/mL
pH [2, 24]: 2.92
Doxorubicin.HCl assay [2, 25]: 1.852 mg/mL
pH [2, 25]: 2.98
Doxorubicin.HCl assay [2, 26]: 2.061 mg/mL
pH [2, 26]: 3.05
Doxorubicin.HCl assay [2, 27]: 1.996 mg/mL
pH [2, 27]: 2.98
Doxorubicin.HCl assay [2, 28]: 1.724 mg/mL
pH [2, 28]: 2.97
pH ([2]; 0.9% sodium chloride pH 3.0, 45° C., 14 days): 2.98
Doxorubicin.HCl assay [2, 29]: 1.344 mg/mL
pH [2, 29]: 2.93
Doxorubicin.HCl assay [2, 30]: 2.061 mg/mL
pH [2, 30]: 3.05
pH ([2]; 0.9% sodium chloride pH 3.0, 55° C., 4 days): 2.90
pH ([2]; 0.9% sodium chloride pH 3.0, 55° C., 8 days): 2.97
Doxorubicin.HCl assay [2, 31]: 0.900 mg/mL
pH [2, 31]: 2.95
Doxorubicin.HCl assay [2, 32]: 2.061 mg/mL
pH [2, 32]: 3.05
Doxorubicin.HCl assay [2, 33]: 1.742 mg/mL
pH [2, 33]: 2.97
pH ([2]; 0.9% sodium chloride pH 3.0, 60° C., 2 days): 2.96
Doxorubicin.HCl assay [2, 34]: 1.290 mg/mL
pH [2, 34]: 2.98
pH ([2]; 0.9% sodium chloride pH 3.0, 60° C., 4 days): 2.96
t90% ([3]; 5% dextrose pH 3.0, 27° C., Arrhenius): 82 days
Doxorubicin.HCl assay ([3]; 5% dextrose pH 3.0, 35° C., 0 days): 2.114 mg/mL
Doxorubicin.HCl assay [3, 35]: 2.044 mg/mL
pH [3, 35]: 2.98
Doxorubicin.HCl assay [3, 36]: 2.034 mg/mL
pH [3, 36]: 2.94
Doxorubicin.HCl assay [3, 37]: 2.015 mg/mL
pH [3, 37]: 2.95
Doxorubicin.HCl assay [3, 38]: 1.934 mg/mL
pH [3, 38]: 2.90
Doxorubicin.HCl assay [3, 39]: 1.859 mg/mL
pH [3, 39]: 2.94
Kobs × 10^3 ([3]; 5% dextrose pH 3.0, 35° C.): 4.190 1/days
Doxorubicin.HCl assay ([3]; 5% dextrose pH 3.0, 45° C., 0 days): 2.114 mg/mL
Doxorubicin.HCl assay [3, 40]: 1.940 mg/mL
pH [3, 40]: 2.97
Doxorubicin.HCl assay [3, 41]: 1.870 mg/mL
pH [3, 41]: 2.98
Doxorubicin.HCl assay [3, 42]: 1.684 mg/mL
pH [3, 42]: 2.95
pH ([3]; 5% dextrose pH 3.0, 45° C., 17 days): 2.96
Doxorubicin.HCl assay [3, 43]: 1.410 mg/mL
pH [3, 43]: 2.96
Kobs × 10^3 ([3]; 5% dextrose pH 3.0, 45° C.): 14.55 1/days
Doxorubicin.HCl assay ([3]; 5% dextrose pH 3.0, 55° C., 0 days): 2.114 mg/mL
pH ([3]; 5% dextrose pH 3.0, 55° C., 4 days): 2.95
pH ([3]; 5% dextrose pH 3.0, 55° C., 8 days): 2.92
pH ([3]; 5% dextrose pH 3.0, 55° C., 14 days): 2.99
Doxorubicin.HCl assay [3, 44]: 0.957 mg/mL
pH [3, 44]: 2.91
Doxorubicin.HCl assay [3, 45]: 0.796 mg/mL
pH [3, 45]: 2.95
Kobs × 10^3 ([3]; 5% dextrose pH 3.0, 55° C.): 58.11 1/days
Doxorubicin.HCl assay ([3]; 5% dextrose pH 3.0, 60° C., 0 days): 2.114 mg/mL
Doxorubicin.HCl assay [3, 46]: 1.752 mg/mL
pH [3, 46]: 2.96
Doxorubicin.HCl assay [3, 47]: 1.393 mg/mL
pH [3, 47]: 2.98
Doxorubicin.HCl assay [3, 48]: 1.176 mg/mL
pH [3, 48]: 2.96
Doxorubicin.HCl assay [3, 49]: 0.925 mg/mL
pH [3, 49]: 2.97
Kobs × 10^3 ([3]; 5% dextrose pH 3.0, 60° C.): 102.6 1/days
SMILES: COc1cccc2c1C(=O)c1c(O)c3c(c(O)c1C2=O)C[C@@](O)(C(=O)CO)C[C@@H]3O[C@H]1C[C@H](N)[C@H](O)[C@H](C)O1 [Doxorubicin.HCl, doxorubicin hydrochloride]
commercially meaningful shelf-life (t90% forecasts) ([1]; 2 mg/ml pH 3.0 aqueous solution): only if the product is stored in a refrigerator
commercially meaningful shelf-life (t90% forecasts) ([2]; 2 mg/ml pH 3.0 in 0.9% sodium chloride): only if the product is stored in a refrigerator
commercially meaningful shelf-life (t90% forecasts) ([3]; 2 mg/ml pH 3.0 5% dextrose solution): only if the product is stored in a refrigerator
